Results from patent US8013156B2 (Exelixis, Inc., priority 2003, dated 2011).

Molecular target: Tie-2 (Homo sapiens, UniProt Q02763)
Assay: Tie-2 tyrosine kinase activity assay (luciferase/luciferin ATP consumption with pEY substrate, or 33P-ATP incorporation)
Assay type: biochemical
Conditions: human enzyme Tie-2
In short: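 Values are IC50 categories (A <50 nM to D ≥10,000 nM), with Ki obtainable by fitting rates to a tight-binding model. Assay formats: 33P-ATP phosphate transfer to adsorbed generic substrate counted by scintillation, or luciferase-detected ATP depletion using pEY.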

Chain of Tie-2 (Q02763 23-1124): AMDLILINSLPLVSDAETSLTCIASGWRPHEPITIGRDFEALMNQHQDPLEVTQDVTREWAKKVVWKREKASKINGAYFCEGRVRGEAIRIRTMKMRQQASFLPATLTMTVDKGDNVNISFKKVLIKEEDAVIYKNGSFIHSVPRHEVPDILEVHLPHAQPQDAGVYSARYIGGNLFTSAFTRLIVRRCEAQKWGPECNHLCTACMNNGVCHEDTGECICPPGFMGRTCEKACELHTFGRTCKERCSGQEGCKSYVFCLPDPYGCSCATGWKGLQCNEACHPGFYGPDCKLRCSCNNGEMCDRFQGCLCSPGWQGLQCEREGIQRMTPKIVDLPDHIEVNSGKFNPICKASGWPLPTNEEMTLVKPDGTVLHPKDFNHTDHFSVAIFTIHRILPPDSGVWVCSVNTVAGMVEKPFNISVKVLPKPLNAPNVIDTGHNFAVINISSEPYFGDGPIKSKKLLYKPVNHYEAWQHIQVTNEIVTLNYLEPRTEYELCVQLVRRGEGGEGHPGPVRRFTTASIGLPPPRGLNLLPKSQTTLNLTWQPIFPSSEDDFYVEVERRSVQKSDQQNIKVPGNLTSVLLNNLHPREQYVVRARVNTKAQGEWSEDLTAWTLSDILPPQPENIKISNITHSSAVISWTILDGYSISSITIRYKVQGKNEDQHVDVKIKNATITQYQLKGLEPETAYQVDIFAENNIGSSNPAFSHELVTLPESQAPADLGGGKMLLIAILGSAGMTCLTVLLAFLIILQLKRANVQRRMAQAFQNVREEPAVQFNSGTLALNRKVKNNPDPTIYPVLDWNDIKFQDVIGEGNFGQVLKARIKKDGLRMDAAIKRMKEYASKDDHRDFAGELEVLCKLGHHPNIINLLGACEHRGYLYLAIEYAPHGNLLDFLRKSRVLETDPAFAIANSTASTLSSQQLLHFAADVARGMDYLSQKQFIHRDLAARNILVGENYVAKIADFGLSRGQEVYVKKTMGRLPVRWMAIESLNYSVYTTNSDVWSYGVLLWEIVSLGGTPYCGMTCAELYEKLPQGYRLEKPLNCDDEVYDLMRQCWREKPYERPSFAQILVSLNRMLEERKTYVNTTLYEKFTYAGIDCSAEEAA

Row | IC50 [nM] | Structure (SMILES)
1 | 1000 to 10000 | O=C(Nc1cc(C(F)(F)F)cc(C(F)(F)F)c1)N1CCN(c2nsnc2OCc2ccnc(Cl)c2)CC1 [Example 83, N-[3,5-bis(trifluoromethyl)phenyl]-4-(4-{[(2-chloropyridin-4-yl)methyl]oxy}-1,2,5-thiadiazol-3-yl)piperazine-1-carboxamide]
2 | < 50 | CCc1cc(NC(=O)N2CCN(c3ncccc3OCc3ccnc(N)n3)CC2)cc(C(F)(F)F)c1 [Example 200, 4-(3-{[(2-aminopyrimidin-4-yl)methyl]oxy}pyridin-2-yl)-N-[3-ethyl-5-(trifluoromethyl)phenyl]piperazine-1-carboxamide]
3 | 1000 to 10000 | O=C(O)c1ccc(COc2nsnc2N2CCN(C(=O)Nc3cc(C(F)(F)F)cc(C(F)(F)F)c3)CC2)cc1 [Example 32, 4-[({4-[4-({[3,5-bis(trifluoromethyl)phenyl]amino}carbonyl)piperazin-1-yl]-1,2,5-thiadiazol-3-yl}oxy)methyl]benzoic acid]
4 | < 50 | CN1CCCC(C(=O)Nc2cc(COc3nsnc3N3CCN(C(=O)Nc4cc(C(F)(F)F)cc(C(F)(F)F)c4)CC3)ccn2)C1 (stereo not shown) [Example 143, N-[3,5-bis(trifluoromethyl)phenyl]-4-(4-{[(2-{[(1-methylpiperidin-3-yl)carbonyl]amino}pyridin-4-yl)methyl]oxy}-1,2,5-thiadiazol-3-yl)piperazine-1-carboxamide]
5 | < 50 | CC1CN(C(=O)Nc2cc(C(F)(F)F)cc(C(F)(F)F)c2)CCN1c1nccnc1OCc1ccncc1 (stereo not shown) [Example 70, N-[3,5-bis(trifluoromethyl)phenyl]-3-methyl-4-{3-[(pyridin-4-ylmethyl)oxy]pyrazin-2-yl}piperazine-1-carboxamide]
6 | < 50 | COc1cc2nccc(Oc3nsnc3N3CCN(C(=O)Nc4cc(C(F)(F)F)cc(C(F)(F)F)c4)CC3)c2cc1OC [Example 276, 4-(4-{[6,7-bis(methyloxy)quinolin-4-yl]oxy}-1,2,5-thiadiazol-3-yl)-N-[3,5-bis(trifluoromethyl)phenyl]piperazine-1-carboxamide]
7 | < 50 | CCc1cc(Cl)cc(NC(=O)N2CCN(c3nsnc3OCc3ccnc(N)n3)CC2)c1 [Example 221, 4-(4-{[(2-aminopyrimidin-4-yl)methyl]oxy}-1,2,5-thiadiazol-3-yl)-N-(3-chloro-5-ethylphenyl)piperazine-1-carboxamide]
8 | 50 to 1000 | O=C(Cc1cc(C(F)(F)F)ccc1C(F)(F)F)NC1CCN(c2nsnc2OCc2ccncc2)C1 (stereo not shown) [Example 60, 2-[2,5-bis(trifluoromethyl)phenyl]-N-(1-{4-[(pyridin-4-ylmethyl)oxy]-1,2,5-thiadiazol-3-yl}pyrrolidin-3-yl)acetamide]
9 | < 50 | O=C(Nc1cc(C(F)(F)F)cc(C(F)(F)F)c1)N1CCN(c2nccnc2OCc2ccncc2)CC1 [Example 38, N-[3,5-bis(trifluoromethyl)phenyl]-4-{3-[(pyridin-4-ylmethyl)oxy]pyrazin-2-yl}piperazine-1-carboxamide]
10 | < 50 | COc1cc2nccc(COc3nsnc3N3CCN(C(=O)Nc4cc(C(F)(F)F)cc(C(F)(F)F)c4)CC3)c2cc1OC [Example 273, 4-[4-({[6,7-bis(methyloxy)quinolin-4-yl]methyl}oxy)-1,2,5-thiadiazol-3-yl]-N-[3,5-bis(trifluoromethyl)phenyl]piperazine-1-carboxamide]
11 | ≥ 10000 | Nc1cc(COc2nsnc2N2CCN(S(=O)(=O)c3cc(C(F)(F)F)cc(C(F)(F)F)c3)CC2)ccn1 [Example 148, 4-({[4-(4-{[3,5-bis(trifluoromethyl)phenyl]sulfonyl}piperazin-1-yl)-1,2,5-thiadiazol-3-yl]oxy}methyl)pyridin-2-amine]
12 | 50 to 1000 | O=C(Nc1cc(C(F)(F)F)cc(C(F)(F)F)c1)N1CCN(c2nsnc2OCc2ccnc(NCc3ccccc3)n2)CC1 [Example 117, N-[3,5-bis(trifluoromethyl)phenyl]-4-{4-[({2-[(phenylmethyl)amino]pyrimidin-4-yl}methyl)oxy]-1,2,5-thiadiazol-3-yl}piperazine-1-carboxamide]
13 | 50 to 1000 | O=C(CN1CCCCC1)Nc1cc(COc2nsnc2N2CCN(C(=O)Nc3cc(C(F)(F)F)cc(C(F)(F)F)c3)CC2)ccn1 [Example 152, N-[3,5-bis(trifluoromethyl)phenyl]-4-{4-[({2-[(piperidin-1-ylacetyl)amino]pyridin-4-yl}methyl)oxy]-1,2,5-thiadiazol-3-yl}piperazine-1-carboxamide]
14 | < 50 | O=C(Nc1cc(C(F)(F)F)cc(C(F)(F)F)c1)N1CCN(c2nsnc2OCc2ccnc(NC3CC3)n2)CC1 [Example 123, N-[3,5-bis(trifluoromethyl)phenyl]-4-[4-({[2-(cyclopropylamino)pyrimidin-4-yl]methyl}oxy)-1,2,5-thiadiazol-3-yl]piperazine-1-carboxamide]
15 | < 50 | CN1CCN(CCOC(=O)Nc2cc(COc3nsnc3N3CCN(C(=O)Nc4cc(C(F)(F)F)cc(C(F)(F)F)c4)CC3)ccn2)CC1 [Example 145, 2-(4-methylpiperazin-1-yl)ethyl {4-[({4-[4-({[3,5-bis(trifluoromethyl)phenyl]amino}carbonyl)piperazin-1-yl]-1,2,5-thiadiazol-3-yl}oxy)methyl]pyridin-2-yl}carbamate]
16 | < 50 | CN(C)CC(=O)Nc1cc(COc2nsnc2N2CCN(C(=O)Nc3cc(C(F)(F)F)cc(C(F)(F)F)c3)CC2)ccn1 [Example 150, N-[3,5-bis(trifluoromethyl)phenyl]-4-{4-[({2-[(N,N-dimethylglycyl)amino]pyridin-4-yl}methyl)oxy]-1,2,5-thiadiazol-3-yl}piperazine-1-carboxamide]
17 | ≥ 10000 | Nc1nccc(COc2nsnc2N2CCN(C(=O)Nc3ccc(F)c(F)c3)CC2)n1 [Example 265, 4-(4-{[(2-aminopyrimidin-4-yl)methyl]oxy}-1,2,5-thiadiazol-3-yl)-N-(3,4-difluorophenyl)piperazine-1-carboxamide]
18 | 50 to 1000 | CN(C)CCNc1cc(COc2nsnc2N2CCN(C(=O)Nc3cc(C(F)(F)F)cc(C(F)(F)F)c3)CC2)ccn1 [Example 120, N-[3,5-bis(trifluoromethyl)phenyl]-4-(4-{[(2-{[2-(dimethylamino)ethyl]amino}pyridin-4-yl)methyl]oxy}-1,2,5-thiadiazol-3-yl)piperazine-1-carboxamide]

The next lines start with the compound.

Row | Structure (SMILES) | IC50 [nM]
19 | Nc1nccc(COc2ccccc2N2CCN(C(=O)Nc3cc(C(F)(F)F)ccc3F)CC2)n1 [Example 268, 4-(2-{[(2-aminopyrimidin-4-yl)methyl]oxy}phenyl)-N-[2-fluoro-5-(trifluoromethyl)phenyl]piperazine-1-carboxamide] | < 50
20 | C[C@H]1CN(c2nsnc2OCc2ccncc2)CCN1C(=O)Nc1cccc(C(F)(F)F)c1 [Example 58, (2S)-2-methyl-4-{4-[(pyridin-4-ylmethyl)oxy]-1,2,5-thiadiazol-3-yl}-N-[3-(trifluoromethyl)phenyl]piperazine-1-carboxamide] | 50 to 1000
21 | Nc1nccc(COc2nsnc2N2CCN(C(=O)Nc3cc(Cl)ccc3F)CC2)n1 [Example 257, 4-(4-{[(2-aminopyrimidin-4-yl)methyl]oxy}-1,2,5-thiadiazol-3-yl)-N-(5-chloro-2-fluorophenyl)piperazine-1-carboxamide] | 1000 to 10000
22 | Nc1nccc(COc2nccnc2N2CCN(C(=O)Nc3cc(Cl)cc(Cl)c3)CC2)n1 [Example 217, 4-(3-{[(2-aminopyrimidin-4-yl)methyl]oxy}pyrazin-2-yl)-N-(3,5-dichlorophenyl)piperazine-1-carboxamide] | < 50
23 | Nc1nccc(COc2ccccc2N2CCN(C(=O)Nc3cc(Cl)cc(Cl)c3)CC2)n1 [Example 271, 4-(2-{[(2-aminopyrimidin-4-yl)methyl]oxy}phenyl)-N-(3,5-dichlorophenyl)piperazine-1-carboxamide] | < 50
24 | CCc1cccc(NC(=O)Nc2cc(COc3cccnc3N3CCN(C(=O)Nc4cccc(CC)c4)CC3)ccn2)c1 [Example 170, N-(3-ethylphenyl)-4-[3-({[2-({[(3-ethylphenyl)amino]carbonyl}amino)pyridin-4-yl]methyl}oxy)pyridin-2-yl]piperazine-1-carboxamide] | < 50
25 | CC(C)c1cccc(NC(=O)N2CCN(c3ncccc3OCc3ccnc(N)n3)CC2)c1 [Example 167, 4-(3-{[(2-aminopyrimidin-4-yl)methyl]oxy}pyridin-2-yl)-N-[3-(1-methylethyl)phenyl]piperazine-1-carboxamide] | < 50
26 | CCc1cc(CC)cc(NC(=O)N2CCN(c3ncccc3OCc3ccnc(N)n3)CC2)c1 [Example 189, 4-(3-{[(2-aminopyrimidin-4-yl)methyl]oxy}pyridin-2-yl)-N-(3,5-diethylphenyl)piperazine-1-carboxamide] | < 50
27 | CC1CN(c2nccnc2OCc2ccncc2)CC(C)N1C(=O)Nc1cccc(C(F)(F)F)c1 (stereo not shown) [Example 65, 2,6-dimethyl-4-{3-[(pyridin-4-ylmethyl)oxy]pyrazin-2-yl}-N-[3-(trifluoromethyl)phenyl]piperazine-1-carboxamide] | 50 to 1000
28 | CCc1cc(Cl)cc(NC(=O)N2CCN(c3ccccc3OCc3ccnc(N)n3)CC2)c1 [Example 281, 4-(2-{[(2-aminopyrimidin-4-yl)methyl]oxy}phenyl)-N-(3-chloro-5-ethylphenyl)piperazine-1-carboxamide] | < 50
29 | CCc1cccc(NC(=O)N2CCN(c3nc4ccccc4nc3OCc3ccncc3)CC2C)c1 (stereo not shown) [Example 95, N-(3-ethylphenyl)-2-methyl-4-{3-[(pyridin-4-ylmethyl)oxy]quinoxalin-2-yl}piperazine-1-carboxamide] | 50 to 1000
30 | CC1CN(c2nsnc2OCc2ccncc2)CC(C)N1C(=O)Nc1cccc(C(F)(F)F)c1 (stereo not shown) [Example 69, 2,6-dimethyl-4-{4-[(pyridin-4-ylmethyl)oxy]-1,2,5-thiadiazol-3-yl}-N-[3-(trifluoromethyl)phenyl]piperazine-1-carboxamide] | 50 to 1000
31 | Nc1nccc(COc2cccnc2N2CCN(C(=O)Nc3cccc(F)c3)CC2)n1 [Example 186, 4-(3-{[(2-aminopyrimidin-4-yl)methyl]oxy}pyridin-2-yl)-N-(3-fluorophenyl)piperazine-1-carboxamide] | 50 to 1000
